Test results: publication PMC12316308, “Interactions of substrates and phosphinyl containing inhibitors with bacterial and human zinc proteases” (PLOS One, 2025)
Where “and” joins values, the source holds several entries; their conditions need not be identical. Equal values may be shown once. Read-outs that look alike come from different tables or passages of the source.

How the values were obtained:
Assay type in all cases: biochemical
[1] = target: T1, human MT1-MMP/MMP-14 (catalytic domain) (Homo sapiens, UniProt P50281); assay: Enzyme inhibition kinetics, fluorogenic substrate ES001; details: MMP-14; for remaining activity at 100 µM: 100 µM inhibitor
T1 construct: human MT1-MMP/MMP-14 (catalytic domain); purchased Calbiochem (San Diego, CA, USA)
Method: (§1) Determination of reaction velocities. The substrate ES001 was used for APMA activated MMP-9 (MMP-9(A)), Mag-Trypsin activated MMP-9 (MMP-9(MT)) and MMP-14, while the substrate ES005 was used for ALN, PLN and TLN. The reaction velocities/initial rates (v) were determined at 37°C, at an excitation wavelength of 320 nm and an emission wavelength of 405 nm with a slit width of 10 nm using either a Perkin Elmer LS 50 Luminescence spectrometer and the FL WinLab Software Package (Perkin Elmer) or a Clario Star micro plate reader (CLARIOstar® BMG LABTECH).
(§2) The phosphinic compounds were dissolved in 100% DMSO to a final concentration of 10 mM. In all assays, a fixed substrate concentration of 4.0 µM was used in a total volume of 100 µL 0.1 M Hepes pH 7.5, 10 mM CaCl2, 0.005% Brij-35 and 1.0% DMSO. Fixed enzyme concentrations were as follows; 0.05 nM MMP-9(A), 0.05 nM MMP-9(MT), 1.0 nM MMP-14, 1.4 nM ALN, 0.5 nM PLN and 0.21 nM TLN. Time dependent inhibitory experiments, with and without 100 μM of phosphinic compounds, were performed as follows: Compounds were either pre-incubated with proteases for 15 and 30 minutes at room temperature before initiating the enzymatic reaction by adding the substrate, or not pre-incubated, meaning the reaction was initiated by adding the protease to the mixture of substrate and compound. Control tests without the compound present were performed under the same conditions. Reactions were monitored for 30 minutes at 37°C.
(§3) Determination of IC50 and Ki values. […] A fixed substrate concentration and the same enzyme and buffer conditions as described above were used. Enzymes, with or without inhibitors, were either pre-incubated for 30 minutes at room temperature or not pre-incubated, and initial rate assays were performed as described above. Assays were performed using a Clario Star microplate reader. The IC50 values with corresponding s.d. were calculated with GraphPad Prism 5 using equation 1 or 2, depending on the concentration range of the phosphinic compounds.
(§4) Equation 3 describe the relationship between IC50 and Ki values for substrate competitive inhibitors, considering the fixed substrate concentration and the enzyme’s Km value for the substrate: […]

[2] = target: T2, APMA activated MMP-9 (MMP-9(A)) (Homo sapiens, UniProt P14780); assay: as above; details: rMMP-9 (APMA activated); for remaining activity at 100 µM: 100 µM inhibitor
T2 construct: made in house; host or cells: Sf9 and High Five insect cells
T2 sequence (P14780 107-707 limits assumed): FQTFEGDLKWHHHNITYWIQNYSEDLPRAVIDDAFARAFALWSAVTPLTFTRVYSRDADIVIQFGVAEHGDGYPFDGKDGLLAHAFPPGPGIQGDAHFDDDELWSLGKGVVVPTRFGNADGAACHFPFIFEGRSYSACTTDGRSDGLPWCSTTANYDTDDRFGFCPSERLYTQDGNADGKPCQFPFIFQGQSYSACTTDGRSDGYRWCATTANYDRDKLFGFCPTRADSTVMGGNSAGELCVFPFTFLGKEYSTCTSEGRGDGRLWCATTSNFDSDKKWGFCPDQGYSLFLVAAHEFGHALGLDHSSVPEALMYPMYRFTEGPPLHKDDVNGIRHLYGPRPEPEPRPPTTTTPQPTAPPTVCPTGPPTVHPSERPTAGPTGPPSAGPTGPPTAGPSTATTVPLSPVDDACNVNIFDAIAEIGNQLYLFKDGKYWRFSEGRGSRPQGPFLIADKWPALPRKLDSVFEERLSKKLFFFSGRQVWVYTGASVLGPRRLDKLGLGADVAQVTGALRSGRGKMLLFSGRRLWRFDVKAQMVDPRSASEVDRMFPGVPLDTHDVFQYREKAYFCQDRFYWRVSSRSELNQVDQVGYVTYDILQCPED
Method: (§5) The expression of recombinant full length proMMP-9 (rpMMP-9) in Sf9 and High Five insect cells and the purification were performed as previously described. The amount of proMMP-9 was estimated spectrophotometrically at 280 nm using ε280nm = […] [46] for the full length enzyme. Activation of the recombinant proMMP-9 was performed with APMA (auto-activation) and Mag-Trypsin as previously described, while the amount of active MMP-9 was determined by active site titration using galardin, also described previously.
as §1, §2, §3, §4

[3] = target: T3, Mag-Trypsin activated MMP-9 (MMP-9(MT)) (Homo sapiens, UniProt P14780); assay: as above; details: rMMP-9 (Mag-trypsin activated); for remaining activity at 100 µM: 100 µM inhibitor
T3 construct: made in house; host or cells: Sf9 and High Five insect cells
T3 sequence (P14780 107-707 limits assumed): as above
Method: as §5, §1, §2, §3, §4

aureolysin (ALN) = target: T4, aureolysin (ALN) (Staphylococcus aureus, UniProt P81177); assay: Enzyme inhibition kinetics, fluorogenic substrate ES005; details: for remaining activity at 100 µM: 100 µM inhibitor
T4 construct: purchased BioCentrum Ltd (Kraków, Poland)
T4 sequence (P81177 209-509): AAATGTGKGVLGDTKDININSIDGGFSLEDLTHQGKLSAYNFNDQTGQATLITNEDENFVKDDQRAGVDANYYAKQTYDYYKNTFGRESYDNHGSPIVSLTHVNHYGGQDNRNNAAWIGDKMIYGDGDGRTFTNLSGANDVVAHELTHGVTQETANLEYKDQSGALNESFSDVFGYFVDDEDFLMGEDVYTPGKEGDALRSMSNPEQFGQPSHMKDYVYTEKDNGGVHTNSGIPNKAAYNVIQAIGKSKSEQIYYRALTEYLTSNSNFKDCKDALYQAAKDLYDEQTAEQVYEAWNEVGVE
Method: as §1, §2, §3, §4

pseudolysin (PLN, LasB) = target: T5, pseudolysin (PLN, LasB) (Pseudomonas aeruginosa, UniProt P14756); assay: as above; details: for remaining activity at 100 µM: 100 µM inhibitor
T5 construct: purchased Calbiochem (San Diego, CA, USA)
T5 sequence (P14756 198-498): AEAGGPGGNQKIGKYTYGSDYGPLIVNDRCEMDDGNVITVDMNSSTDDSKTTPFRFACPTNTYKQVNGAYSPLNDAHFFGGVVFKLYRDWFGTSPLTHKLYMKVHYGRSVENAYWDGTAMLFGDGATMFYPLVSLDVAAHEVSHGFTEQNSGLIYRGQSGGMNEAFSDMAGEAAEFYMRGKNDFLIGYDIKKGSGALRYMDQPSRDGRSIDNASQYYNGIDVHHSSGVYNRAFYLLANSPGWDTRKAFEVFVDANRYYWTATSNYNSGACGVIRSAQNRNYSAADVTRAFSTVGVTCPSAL
Method: as §1, §2, §3, §4

thermolysin (TLN) = target: T6, thermolysin (TLN) (Bacillus thermoproteolyticus, UniProt P00800); assay: as above; details: for vi/v0 avg (time dependent inhibition, Supplementary Figure S8): Thermolysin, inhibitor 100 µM
T6 construct: purchased Calbiochem (San Diego, CA, USA)
T6 sequence (P00800 233-548): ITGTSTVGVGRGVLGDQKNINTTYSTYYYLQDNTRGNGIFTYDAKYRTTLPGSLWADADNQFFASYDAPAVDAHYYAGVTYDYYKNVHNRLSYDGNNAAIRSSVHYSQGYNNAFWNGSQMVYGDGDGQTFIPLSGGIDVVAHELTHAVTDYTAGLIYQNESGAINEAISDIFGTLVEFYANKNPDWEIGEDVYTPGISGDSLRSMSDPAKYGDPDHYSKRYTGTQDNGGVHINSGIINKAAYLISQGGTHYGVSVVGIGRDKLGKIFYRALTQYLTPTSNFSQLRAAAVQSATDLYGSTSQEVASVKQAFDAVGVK
Method: as §1, §2, §3, §4

[4] = 0.25 h, 15 min pre incubation, read-out: vi/v0 (single replicate)
[5] = 0.25 h, 15 min pre incubation, read-out: vi/v0 avg
[6] = 0.5 h, 30 min pre incubation, read-out: vi/v0 avg
[7] = no preincubation, read-out: vi/v0 (single replicate)
[8] = no preincubation, read-out: vi/v0 avg
[9] = inhibitor 100 μM, preincubation 0 min
[10] = inhibitor 100 μM, preincubation 15 min
[11] = inhibitor 100 μM, preincubation 30 min
[12] = 0.5 h, 30 min pre incubation, read-out: vi/v0 (single replicate)
[13] = inhibitor 100 μM, average over 0, 15, 30 min preincubation

Structure (SMILES): CCOC(=O)C(CO)CP(=O)(O)C(Cc1ccccc1)NC(=O)OCc1ccccc1 (stereo not drawn) [H5]
- remaining activity at 100 µM [1, 4]: 87.2%
- remaining activity at 100 µM [1, 5]: 88.7%
- remaining activity at 100 µM [1, 6]: 96.8%
- remaining activity at 100 µM [1, 7]: 96.3%
- remaining activity at 100 µM [1, 8]: 98.5%
- vi/v0 Av (bar diagram figure 7) ([1]; inhibitor 100 μM, average over preincubation times): 0.9417
- vi/v0 (relative enzyme activity with inhibitor), single determinations [1, 9]: 0.9629 and 1.0076
- vi/v0 (relative enzyme activity with inhibitor), single determinations [1, 10]: 0.8725 and 0.8868 and 0.9012
- vi/v0 (relative enzyme activity with inhibitor), single determinations [1, 11]: 1.138 and 0.953 and 0.8121
- remaining activity at 100 µM [2, 5]: 102%
- remaining activity at 100 µM [2, 12]: 77.7%
- remaining activity at 100 µM [2, 6]: 83.7%
- remaining activity at 100 µM [2, 8]: 100%
- vi/v0 Av (bar diagram figure 7) [2, 13]: 0.9644
- vi/v0 (relative enzyme activity with inhibitor), single determinations [2, 9]: 1.202 and 0.9509 and 1.0525 and 0.8
- vi/v0 (relative enzyme activity with inhibitor), single determinations [2, 10]: 1.106 and 1.228 and 0.879 and 0.8791
- vi/v0 (relative enzyme activity with inhibitor), single determinations [2, 11]: 0.7771 and 0.9097 and 0.824
- remaining activity at 100 µM [3, 4]: 87.3%
- remaining activity at 100 µM [3, 5]: 84.8%
- remaining activity at 100 µM [3, 12]: 86.9%
- remaining activity at 100 µM [3, 6]: 88.1%
- remaining activity at 100 µM [3, 7]: 88.4%
- remaining activity at 100 µM [3, 8]: 88.5%
- vi/v0 Av (bar diagram figure 7) [3, 13]: 0.8694
- vi/v0 (relative enzyme activity with inhibitor), single determinations [3, 9]: 0.8838 and 0.8693 and 0.8452 and 0.9405
- vi/v0 (relative enzyme activity with inhibitor), single determinations [3, 10]: 0.8726 and 0.9039 and 0.8256 and 0.7918
- vi/v0 (relative enzyme activity with inhibitor), single determinations [3, 11]: 0.8689 and 0.8925
- remaining activity at 100 µM (aureolysin (ALN); 0.25 h, read-out: vi/v0 (single replicate), Aureolysin, 15 min pre incubation): 84.1%
- remaining activity at 100 µM (aureolysin (ALN); 0.25 h, read-out: vi/v0 avg, Aureolysin, 15 min pre incubation): 89.9%
- remaining activity at 100 µM (aureolysin (ALN); 0.5 h, read-out: vi/v0 (single replicate), Aureolysin, 30 min pre incubation): 89.6%
- remaining activity at 100 µM (aureolysin (ALN); 0.5 h, read-out: vi/v0 avg, Aureolysin, 30 min pre incubation): 87.3%
- vi/v0 Av (bar diagram figure 7) (aureolysin (ALN); Aureolysin (ALN), inhibitor 100 μM, average over 0, 15, 30 min preincubation): 0.8959
- vi/v0 (relative enzyme activity with inhibitor), single determinations (aureolysin (ALN); Aureolysin (ALN), inhibitor 100 μM, preincubation 0 min): 0.8465 and 0.9473 and 0.9691 and 0.8995
- vi/v0 (relative enzyme activity with inhibitor), single determinations (aureolysin (ALN); Aureolysin (ALN), inhibitor 100 μM, preincubation 15 min): 0.8412 and 0.9365 and 0.9386 and 0.8803
- vi/v0 (relative enzyme activity with inhibitor), single determinations (aureolysin (ALN); Aureolysin (ALN), inhibitor 100 μM, preincubation 30 min): 0.8961 and 0.824 and 0.8612 and 0.9107
- remaining activity at 100 µM (aureolysin (ALN); read-out: vi/v0 (single replicate), Aureolysin, no preincubation): 84.6%
- remaining activity at 100 µM (aureolysin (ALN); read-out: vi/v0 avg, Aureolysin, no preincubation): 91.6%
- remaining activity at 100 µM (pseudolysin (PLN, LasB); 0.25 h, read-out: vi/v0 (single replicate), Pseudolysin, 15 min pre incubation): 83.9%
- remaining activity at 100 µM (pseudolysin (PLN, LasB); 0.25 h, read-out: vi/v0 avg, Pseudolysin, 15 min pre incubation): 86.2%
- remaining activity at 100 µM (pseudolysin (PLN, LasB); 0.5 h, read-out: vi/v0 (single replicate), Pseudolysin, 30 min pre incubation): 86.3%
- remaining activity at 100 µM (pseudolysin (PLN, LasB); 0.5 h, read-out: vi/v0 avg, Pseudolysin, 30 min pre incubation): 75.4%
- vi/v0 Av (bar diagram figure 7) (pseudolysin (PLN, LasB); Pseudolysin (PLN), inhibitor 100 μM, average over 0, 15, 30 min preincubation): 0.86
- vi/v0 (relative enzyme activity with inhibitor), single determinations (pseudolysin (PLN, LasB); Pseudolysin (PLN), inhibitor 100 μM, preincubation 0 min): 1.071 and 0.9333 and 0.8899
- vi/v0 (relative enzyme activity with inhibitor), single determinations (pseudolysin (PLN, LasB); Pseudolysin (PLN), inhibitor 100 μM, preincubation 15 min): 0.8394 and 0.8848
- vi/v0 (relative enzyme activity with inhibitor), single determinations (pseudolysin (PLN, LasB); Pseudolysin (PLN), inhibitor 100 μM, preincubation 30 min): 0.863 and 0.6659 and 0.7323
- remaining activity at 100 µM (pseudolysin (PLN, LasB); read-out: vi/v0 (single replicate), Pseudolysin, no preincubation): 107%
- remaining activity at 100 µM (pseudolysin (PLN, LasB); read-out: vi/v0 avg, Pseudolysin, no preincubation): 96.5%
- vi/v0 Av (bar diagram figure 7) (thermolysin (TLN); Thermolysin (TLN), inhibitor 100 μM, average over 0, 15, 30 min preincubation): 1.046
- vi/v0 (relative enzyme activity with inhibitor), single determinations (thermolysin (TLN); Thermolysin (TLN), inhibitor 100 μM, preincubation 0 min): 1.137 and 1.068 and 1.02 and 1.001
- vi/v0 (relative enzyme activity with inhibitor), single determinations (thermolysin (TLN); Thermolysin (TLN), inhibitor 100 μM, preincubation 15 min): 1.051 and 0.8192 and 1.086 and 1.159
- vi/v0 (relative enzyme activity with inhibitor), single determinations (thermolysin (TLN); Thermolysin (TLN), inhibitor 100 μM, preincubation 30 min): 1.144 and 1.0013 and 1.003 and 1.066
- vi/v0 avg (time dependent inhibition, Supplementary Figure S8) (thermolysin (TLN); 15 min pre incubation): 1.029
- vi/v0 avg (time dependent inhibition, Supplementary Figure S8) (thermolysin (TLN); 30 min pre incubation): 1.054
- vi/v0 avg (time dependent inhibition, Supplementary Figure S8) (thermolysin (TLN); No preincubation): 1.056
